The subject of series [1] is Mycobacterium tuberculosis TB H3 Rv. Briefly: Activity against Mycobacterium tuberculosis TB H3 Rv in vitro, MIC (Table 1). In kind it is cell-based. Conditions: TBH3RV, read-out: MIC (minimum inhibitory concentration). The source says:
(a) minimum inhibitory concentration (1 mcg = 1.10^-5 g)

Series [2] is described as follows: Pharmacokinetics in rats (Table 1). Conditions: rat; for half-life: in vivo, read-out: t/2 (halflife of the elimination) (converted); for Cmax: plasma, read-out: Cmax (maximum concentration in the plasma). The class given is in vivo. The source says:
(c) Cmax = maximum concentration in the plasma (1 mcg = 1.10^-5

A further series deals with M. kansasii K 367. Kind of series: MIC against atypical Mycobacteria, photochromogenic (Table II). The class given is cell-based. Conditions: Mycobacterium kansasii, K367, read-out: MIC (minimum inhibitory concentration). An excerpt: (§1) MIC = minimum inhibitory concentration (1 mcg = 1.10^-5 g)
In the next series the test system is atypical Mycobacteria. Briefly: Antimicrobial activity in vitro against atypical Mycobacteria. In kind it is cell-based, Mycobacterium. Conditions: against a number of atypical Mycobacteria; vs rifampicin. An excerpt: This excellent activity is especially pronounced in group c, i.e. non-photochromogenic micro-organisms, which are among the most dangerous pathogens of AIDS infections.

The subject of a further series is M. aquae K 1165. Briefly: MIC against atypical Mycobacteria, scotochromogenic (Table II). In kind it is cell-based. To be noted: read-out: MIC (minimum inhibitory concentration).
Text: as §1

Another series concerns M. xenopei K 716. The description is as above. The class given is cell-based. Conditions: Mycobacterium xenopi, K716, read-out: MIC (minimum inhibitory concentration).
Text: as §1

The subject of another series is M. scrofulaceum K 1166. The series is described as above. In kind it is cell-based. To be noted: Mycobacterium scrofulaceum, K1166, read-out: MIC (minimum inhibitory concentration).
Text: as §1

Series [3] is described as follows: Retention time in the organism / long-term activity. To be noted: for activity in respect of pharmacokinetics: vs known 3-piperazinyl-rifamycins; for retention time in the organism: vs rifampicin or compounds 1 to 4 of U.S. Pat. No. 4,005,077. In kind it is in vivo.
Series [4] can be described thus: Pharmacokinetics in mice (Table 1). To be noted: mouse; for half-life: in vivo, read-out: t/2 (halflife of the elimination) (converted); for Cmax: plasma, read-out: Cmax (maximum concentration in the plasma). The class given is in vivo.
Series [5] concerns Mycobacterium tuberculosis TB H3 Rv. Briefly: Activity against Mycobacterium tuberculosis TB H3 Rv, ED50 p.o. (Table 1). The class given is in vivo. To be noted: TBH3RV, po.
The test system of the next series is M. intracellular K 546. Kind of series: MIC against atypical Mycobacteria, non-photochromogenic (Table II). The class given is cell-based. To be noted: read-out: MIC (minimum inhibitory concentration).
Text: as §1

The test system of a further series is M. intracellular K 551. The description is as above. The class given is cell-based. To be noted: read-out: MIC (minimum inhibitory concentration).
Text: as §1

The subject of a further series is M. avium K 536. Described as above. The class given is cell-based. Conditions: Mycobacterium avium, K536, read-out: MIC (minimum inhibitory concentration).
Text: as §1

In another series the test system is M. intracellular K 653. The description is as above. To be noted: read-out: MIC (minimum inhibitory concentration). In kind it is cell-based.
Text: as §1

The test system of a further series is M. intracellular K 181. Described as above. In kind it is cell-based. Conditions: read-out: MIC (minimum inhibitory concentration).
Text: as §1

The next series relates to M. intracellular K 550. The description is as above. In kind it is cell-based. Conditions: read-out: MIC (minimum inhibitory concentration).
Text: as §1

Values after ≈ are worked out from the molar mass of the structure shown.

Take `COC1C=COC2(C)Oc3c(C)c(O)c4c(O)c(c(N5CCN(Cc6c(C)cc(C)cc6C)CC5)c(O)c4c3C2=O)NC(=O)C(C)=CC=CC(C)C(O)C(C)C(O)C(C)C(OC(C)=O)C1C` (stereo not drawn) [A, 3-[4-(2,4,6-trimethylbenzyl)-piperazin-1-yl]-rifamycin SV]: the MIC in [1] amounted to 0.003 µg/mL (≈ 0.00328 µM); in the series with M. kansasii K 367 it was 0.015 µg/mL (≈ 0.0164 µM); in the series with M. aquae K 1165 it was 0.03 µg/mL (≈ 0.0328 µM); with M. xenopei K 716, 1 µg/mL (≈ 1.09 µM); in the series on M. scrofulaceum K 1166, 0.03 µg/mL (≈ 0.0328 µM); with M. intracellular K 546, 0.125 µg/mL (≈ 0.137 µM). Further, the MIC is 0.25 µg/mL (≈ 0.273 µM) with M. intracellular K 551; 0.5 µg/mL (≈ 0.547 µM) in the series with M. avium K 536; 0.125 µg/mL (≈ 0.137 µM) in the series on M. intracellular K 653; 0.03 µg/mL (≈ 0.0328 µM) in the series on M. intracellular K 181; 0.25 µg/mL (≈ 0.273 µM) with M. intracellular K 550. The half-life is around 450 h in series [2] and 47.4 h in series [4]. Moreover, the figures for the Cmax in [2] and in [4] were 1510 ng/mL and 2950 ng/mL, respectively. Further, the “antimicrobial activity in vitro compared with rifampicin” value with atypical Mycobacteria is “several times greater than the antimicrobial activity exhibited by rifampicin”. Moreover, the “activity in respect of pharmacokinetics” value in series [3] is “superior activity in respect of pharmacokinetics”. The “retention time in the organism” value in series [3] is given as “appreciably longer than that of rifampicin or of compounds 1 to 4”. Further, in series [5], the ED50 (in general, the dose that gives a 50% effect, or the effect in half of the subjects) stood at 4 mg/kg.
For the compound `COC1C=COC2(C)Oc3c(C)c(O)c4c(O)c(c(N5CCN(Cc6cccc(C)c6)CC5)c(O)c4c3C2=O)NC(=O)C(C)=CC=CC(C)C(O)C(C)C(O)C(C)C(OC(C)=O)C1C` (stereo not drawn) [Compound 2], the MIC in series [1] was found to be 0.0003 µg/mL (≈ 0.000339 µM). In addition, in [4], the half-life is 11.9 h and the Cmax amounted to 3390 ng/mL. The same compound yielded an ED50 in [5] of 1.4 mg/kg.
The like results for `COC1C=COC2(C)Oc3c(C)c(O)c4c(O)c(c(N5CCN(CC(C)C)CC5)c(O)c4c3C2=O)NC(=O)C(C)=CC=CC(C)C(O)C(C)C(O)C(C)C(OC(C)=O)C1C` (stereo not drawn) [Compound 5, 3-(4-isobutylpiperazin-1-yl)-rifamycin SV] were, in that order, 0.0001 µg/mL (≈ 0.000119 µM), 12 h, 1200 ng/mL and 1 mg/kg.
With `COC1C=COC2(C)Oc3c(C)c(O)c4c(O)c(c(N5CCN(Cc6ccccc6C)CC5)c(O)c4c3C2=O)NC(=O)C(C)=CC=CC(C)C(O)C(C)C(O)C(C)C(OC(C)=O)C1C` (stereo not drawn) [Compound 1, 3-[4-(o-methylbenzyl)-piperazin-1-yl]-rifamycin SV], the MIC in [1] was 0.001 µg/mL (≈ 0.00113 µM). For the same compound, in series [2], the half-life is 86 h and the Cmax was 1320 ng/mL. In series [4], the half-life is 22.9 h and the Cmax turned out to be 2690 ng/mL. In addition, in [5], the ED50 was 1.4 mg/kg.
With `C=C(C)CN1CCN(c2c3c(O)c4c(O)c(C)c5c(c4c2O)C(=O)C(C)(OC=CC(OC)C(C)C(OC(C)=O)C(C)C(O)C(C)C(O)C(C)C=CC=C(C)C(=O)N3)O5)CC1` (stereo not drawn) [Compound 6], the MIC in [1] was 0.0003 µg/mL (≈ 0.000359 µM). In series [4], the half-life was 21 h and the Cmax was 1400 ng/mL. In series [5], this compound yielded a 50% effective dose (ED50) of 1 mg/kg.
The like results for `COC1C=COC2(C)Oc3c(C)c(O)c4c(O)c(c(N5CCN(Cc6ccc(C)cc6)CC5)c(O)c4c3C2=O)NC(=O)C(C)=CC=CC(C)C(O)C(C)C(O)C(C)C(OC(C)=O)C1C` (stereo not drawn) [Compound 3, 3-[4-(p-methylbenzyl)-piperazin-1-yl]-rifamycin SV] were, in that order, 0.0001 µg/mL (≈ 0.000113 µM), 11.5 h, 2280 ng/mL and 1.2 mg/kg.
Regarding `CO[C@H]1/C=C/O[C@@]2(C)Oc3c(C)c(O)c4c(O)c(c(/C=N/N5CCN(C)CC5)c(O)c4c3C2=O)NC(=O)/C(C)=C\C=C\[C@H](C)[C@H](O)[C@@H](C)[C@@H](O)[C@@H](C)[C@H](OC(C)=O)[C@@H]1C` [Rifampicin], the MIC in series [1] is 0.003 µg/mL (≈ 0.00365 µM); in the series with M. kansasii K 367 it was 0.25 µg/mL (≈ 0.304 µM); in the series with M. aquae K 1165 it was 0.25 µg/mL (≈ 0.304 µM); in the series on M. xenopei K 716, 1 µg/mL (≈ 1.22 µM); in the series with M. scrofulaceum K 1166, 1 µg/mL (≈ 1.22 µM); in the series with M. intracellular K 546, 16 µg/mL (≈ 19.4 µM). For the same compound, the MIC with M. intracellular K 551 came out at 1 µg/mL (≈ 1.22 µM); in the series with M. avium K 536, 64 µg/mL (≈ 77.8 µM); in the series with M. intracellular K 653, 2 µg/mL (≈ 2.43 µM); in the series with M. intracellular K 181, 0.5 µg/mL (≈ 0.608 µM); with M. intracellular K 550, 8 µg/mL (≈ 9.72 µM). For the same compound, the Cmax in [2] came out at 1390 ng/mL; in series [4], 2480 ng/mL. This compound gave an ED50 in [5] of 5.9 mg/kg.
Regarding `COC1C=COC2(C)Oc3c(C)c(O)c4c(O)c(c(N5CCN(Cc6cccc7ccccc67)CC5)c(O)c4c3C2=O)NC(=O)C(C)=CC=CC(C)C(O)C(C)C(O)C(C)C(OC(C)=O)C1C` (stereo not drawn) [B, 3-[4-(1-naphthylmethyl)-piperazin-1-yl]rifamycin SV], the MIC in series [1] amounted to 0.0003 µg/mL (≈ 0.000325 µM); in the series with M. kansasii K 367, 0.015 µg/mL (≈ 0.0163 µM); in the series on M. aquae K 1165 it was 0.03 µg/mL (≈ 0.0325 µM); in the series on M. xenopei K 716 it was 0.5 µg/mL (≈ 0.542 µM); with M. scrofulaceum K 1166 it was 0.06 µg/mL (≈ 0.0651 µM); with M. intracellular K 546 it was 1 µg/mL (≈ 1.08 µM). Moreover, the MIC stood at 1 µg/mL (≈ 1.08 µM) in the series with M. intracellular K 551; 1 µg/mL (≈ 1.08 µM) in the series on M. avium K 536; 0.25 µg/mL (≈ 0.271 µM) with M. intracellular K 653; 0.125 µg/mL (≈ 0.136 µM) in the series on M. intracellular K 181; 1 µg/mL (≈ 1.08 µM) in the series on M. intracellular K 550. The values for the half-life in series [2] and in series [4] were 111 h and 48.5 h, respectively. For the same compound, the results for the Cmax in [2] and in [4] were 1120 ng/mL and 1880 ng/mL, respectively. Besides, the “antimicrobial activity in vitro compared with rifampicin” value in the series with atypical Mycobacteria is “several times greater than the antimicrobial activity exhibited by rifampicin”. Further, the “activity in respect of pharmacokinetics” value in [3] is “superior activity in respect of pharmacokinetics”. Moreover, in [3], the “retention time in the organism” value is listed as “appreciably longer than that of rifampicin or of compounds 1 to 4”. This compound came in with an ED50 in [5] of 3 mg/kg.
Regarding `COC1C=COC2(C)Oc3c(C)c(O)c4c(O)c(c(N5CCN(Cc6ccc(C(C)C)cc6)CC5)c(O)c4c3C2=O)NC(=O)C(C)=CC=CC(C)C(O)C(C)C(O)C(C)C(OC(C)=O)C1C` (stereo not drawn) [Compound 4, 3-[4-(p-isopropylbenzyl)-piperazin-1-yl]-rifamycin SV], the MIC in series [1] amounted to 0.003 µg/mL (≈ 0.00328 µM). For the same compound, in series [4], the half-life was 20.4 h and the Cmax came out at 1810 ng/mL. Also, the 50% effective dose (ED50) in [5] was found to be 1.5 mg/kg.

The record behind these values is patent publication US4918066A, “Substituted 4-benzylpiperazinyl compounds” (Ciba-Geigy Corporation, priority 1989, dated 1990).
